Experiments:
Assay type in all cases: physicochemical
[1] = Color tone of colored solution, visually observed; conditions: 0.001%-by-mass n-decane solution
Text: (§1) Azamethine colorants (the above-mentioned Exemplary Compounds 16, 17, 1, and 3 shown in Table 1 below) and n-decane that was an organic solvent were mixed, respectively, thereby preparing 4 kinds of 0.001%-by-mass n-decane solutions (colored compositions) colored with the azamethine colorants, respectively.
(§2) Separately, azo colorants (Comparative Compounds 1 to 3 mentioned below) and n-decane that was an organic solvent were mixed, respectively, thereby preparing 3 kinds of 0.001%-by-mass n-decane solutions (comparative colored compositions) colored with the azo colorants, respectively, as comparative colored compositions.
Each of the colored solutions (colored compositions) was visually observed and evaluated regarding the color tone thereof.

[2] = Maximum absorption wavelength, absorbance and absorption coefficient (visible light spectrophotometer); conditions: for Absorbance (abs) / Maximum absorption wavelength (λmax): 0.001%-by-mass n-decane solution; for Molar absorption coefficient (ε): at maximum absorption wavelength, calculated by Lambert-Beer law, n-decane solution; for molar extinction coefficients (ε) (in words): summary of Table 1
Text: as §1, §2
The maximum absorption wavelength (λmax) and the absorbance of the colored solutions (colored compositions) were measured using a visible light spectrophotometer (UV-1800 PC, trade name, manufactured by Shimadzu Corporation). Further, the molar extinction coefficient (∈) at a maximum absorption wavelength (λmax) of the colorants included in the colored solutions (the colored compositions) was calculated, based on a Lambert-Beer law.

Solubility in hexane = conditions: for Solubility in hexane [%]: n-hexane, 25° C. and 0.1 MPa, % by mass; for solubility in hexane (in words): summary of Table 1
Procedure: The solubility of each of the colorants in n-hexane as a non-polar solvent was measured as described below.
The respective colorants were each dissolved in n-hexane that had been heated to 50° C. to prepare a saturated solution, and then, the obtained saturated solution was left to stand for 1 hour under an environment of 25° C. and 0.1 MPa. The precipitated colorant was filtered, and the precipitation amount was measured to calculate the solubility (% by mass) of each of the colorants in n-hexane at 25° C. and 0.1 MPa.

[3] = Relative dielectric constant of colorant; conditions: for Relative dielectric constant (1 kHz): extrapolated to colorant concentration 100% from diluted n-decane solutions, 1.0 V, 20° C., 40% RH; for relative dielectric constants (in words): summary of Table 1
Procedure: Herein, the relative dielectric constant of the colorant denotes a relative dielectric constant (calculated value) at a colorant concentration of 100%, as determined by extrapolating a straight line (calibration curve) indicating the relationship between the colorant concentration and the relative dielectric constant in a diluted colorant solution.
An equivalent parallel capacitance when a measurement frequency 1 kHz and a measurement voltage of 1.0 V are applied is measured in the state in which a diluted colorant solution is sandwiched between two electrodes facing each other with an electrode interval of 10 μm, and the relative dielectric constant of the diluted colorant solution is calculated by the following equation, based on the equivalent parallel capacitance thus obtained. Relative dielectric constant of diluted colorant solution=Equivalent parallel capacitance×Electrode interval/Electrode area/Dielectric constant of vacuum (∈0)
The relative dielectric constant of each of the colorants is determined by the following method.
That is, the relative dielectric constants of plural diluted colorant solutions at various concentrations, which had been prepared as described in (4-1) below, were measured, respectively, in the manner as described in (4-2) below. From the results obtained, a straight line (calibration curve) showing the relationship between the colorant concentrations and the relative dielectric constants were created. The relative dielectric constant (calculated value) at a colorant concentration of 100% was determined by extrapolating the straight line (calibration curve), and the obtained value was taken as the relative dielectric constant of the colorant.
The respective colorants and n-decane as an organic solvent are mixed, to thereby prepare n-decane solutions (diluted colorant solutions) at various concentrations, respectively.
A diluted colorant solution was sandwiched between ITO electrode-containing glass substrates that are flat plates in parallel facing each other at an electrode interval of 10 μm, and then an equivalent parallel capacitance was measured at the time of voltage application for measurement of 1.0 V at a frequency for measurement of 1 kHz under the conditions of 20° C. and 40% RH using a Model 2353LCR meter (trade name, manufactured by NF Corporation). Based on the equivalent parallel capacitance, the relative dielectric constant of the diluted colorant solution was determined in accordance with the following equation.
Relative dielectric constant of diluted colorant solution=Equivalent parallel capacitance×Interval of electrodes/Area of electrode/Dielectric constant of vacuum (∈0)

Row | SMILES | Color of solution [1] | Absorbance (abs) [2] | Maximum absorption wavelength (λmax) [2] | Molar absorption coefficient (ε) [2] | molar extinction coefficients (ε) (in words) [2] | Solubility in hexane [%] (Solubility in hexane) | solubility in hexane (in words) (Solubility in hexane) | Relative dielectric constant (1 kHz) [3] | relative dielectric constants (in words) [3]
1 | CCCCC(CC)c1nnc2n1N=C(C(C)(C)C)/C2=N/c1c(C(C)(C)C)nn2c(C(CC)CCCC)n[nH]c12 (stereo not drawn) [Exemplary Compound 1] | Orange | 0.533 abs | 492 nm | 28600 L/mol/cm | high | 10% | high solubility | 3.3 | low
2 | CCCCC(CC)c1n[nH]c2c(/N=C3/C(C#N)=C(C(=O)OC4C(C(C)(C)C)CC(C)CC4C(C)(C)C)c4nc(C(C)(C)C)nn43)c(C(C)(C)C)nn12 (stereo not drawn) [Exemplary Compound 3] | Red | 0.797 abs | 545 nm | 56900 L/mol/cm | high | ≥ 40 or % | high solubility | 5.1 | low
